Results as given in patent publication US9050341B2, “Methods of treating drug resistant and other tumors by administering 6,7-dialkoxy quinazoline derivatives” (NATCO PHARMA LIMITED, priority 2009, dated 2015).

What was measured:
Experiment in all cases: KinomeScan kinase profiling
Type in all cases: binding
[1] = biological target: T1, PKN1 (Homo sapiens, UniProt Q16512)
T1 construct: purchased Ambit Biosciences Corp (KinomeScan); host or cells: E. coli host derived from BL21, infected with T7 phage

[2] = biological target: T2, TLK2 (Homo sapiens, UniProt Q86UE8)
T2 construct: purchased Ambit Biosciences Corp (KinomeScan); host or cells: E. coli host derived from the BL21 strain (T7 phage lysate)

[3] = biological target: T3, DMPK2 (Homo sapiens, UniProt Q6DT37)
T3 construct: purchased Ambit Biosciences Corp (KinomeScan); host or cells: T7 phage in E. coli host derived from BL21

[4] = biological target: T4, ULK2 (Homo sapiens, UniProt Q8IYT8)
T4 construct: purchased Ambit Biosciences Corp (KinomeScan); host or cells: E. coli host derived from the BL21 strain (T7 phage lysate)

[5] = biological target: T5, MUSK (Homo sapiens, UniProt O15146)
T5 construct: host or cells: T7 phage in E. coli host derived from BL21

[6] = biological target: T6, DCAMKL2 (Homo sapiens, UniProt Q8N568)
T6 construct: purchased Ambit Biosciences Corp (KinomeScan); host or cells: T7 phage in E. coli host derived from BL21

[7] = biological target: T7, IKK-beta (Homo sapiens, UniProt O14920)
T7 construct: host or cells: T7 phage in E. coli host derived from BL21

[8] = biological target: T8, RPS6KA1 (Kin.Dom.-2-C-terminal) (Homo sapiens, UniProt Q15418)
T8 construct: RPS6KA1 (Kin.Dom.-2-C-terminal); host or cells: E. coli host derived from BL21, T7 phage lysate

[9] = biological target: T9, ACVR1B (Homo sapiens, UniProt P36896)
T9 construct: host or cells: E. coli host derived from BL21 (T7 phage lysate)

[10] = biological target: T10, ABL1 (F317I) (Homo sapiens, UniProt P00519, F317I)
T10 construct: host or cells: E. coli host derived from BL21 (T7 phage lysate)

[11] = biological target: T11, LATS2 (Homo sapiens, UniProt Q9NRM7)
T11 construct: host or cells: T7 phage in E. coli host derived from BL21

[12] = biological target: T12, HPK1 (Homo sapiens, UniProt Q92918)
T12 construct: host or cells: E. coli host derived from BL21, infected with T7 phage

[13] = biological target: T13, CAMK2B (Homo sapiens, UniProt Q13554)
T13 construct: purchased Ambit Biosciences Corp (KinomeScan); host or cells: E. coli host derived from the BL21 strain, T7 phage

[14] = biological target: T14, DCAMKL1 (Homo sapiens, UniProt O15075)
T14 construct: purchased Ambit Biosciences Corp (KinomeScan); host or cells: T7 phage in E. coli host derived from BL21

[15] = biological target: T15, MARK1 (Homo sapiens, UniProt Q9P0L2)
T15 construct: host or cells: E. coli derived from BL21, infected with T7 phage

[16] = biological target: T16, AKT1 (Homo sapiens, UniProt P31749)
T16 construct: host or cells: E. coli host derived from BL21 (T7 phage lysate)

[17] = biological target: T17, RPS6KA3 (Kin.Dom.-1-N-terminal) (Homo sapiens, UniProt P51812)
T17 construct: RPS6KA3 (Kin.Dom.-1-N-terminal); host or cells: E. coli host derived from BL21, T7 phage lysate

[18] = biological target: T18, TGFBR1 (Homo sapiens, UniProt P36897)
T18 construct: host or cells: E. coli host derived from the BL21 strain, T7 phage lysate
T18 sequence (P36897 34-503): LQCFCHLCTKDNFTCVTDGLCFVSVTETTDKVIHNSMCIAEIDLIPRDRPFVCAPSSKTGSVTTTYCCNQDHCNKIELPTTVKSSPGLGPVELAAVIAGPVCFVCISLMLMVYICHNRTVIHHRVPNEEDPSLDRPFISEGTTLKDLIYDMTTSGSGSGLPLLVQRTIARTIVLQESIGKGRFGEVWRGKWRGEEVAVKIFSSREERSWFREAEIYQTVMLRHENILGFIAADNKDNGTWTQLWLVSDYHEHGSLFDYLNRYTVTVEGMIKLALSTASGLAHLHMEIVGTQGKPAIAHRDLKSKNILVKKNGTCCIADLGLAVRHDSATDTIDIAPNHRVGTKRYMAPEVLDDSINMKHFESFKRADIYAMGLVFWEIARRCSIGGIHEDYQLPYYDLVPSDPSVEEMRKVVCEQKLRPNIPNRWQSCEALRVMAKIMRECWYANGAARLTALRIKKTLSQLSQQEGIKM

T1 sequence (Q16512 whole entry): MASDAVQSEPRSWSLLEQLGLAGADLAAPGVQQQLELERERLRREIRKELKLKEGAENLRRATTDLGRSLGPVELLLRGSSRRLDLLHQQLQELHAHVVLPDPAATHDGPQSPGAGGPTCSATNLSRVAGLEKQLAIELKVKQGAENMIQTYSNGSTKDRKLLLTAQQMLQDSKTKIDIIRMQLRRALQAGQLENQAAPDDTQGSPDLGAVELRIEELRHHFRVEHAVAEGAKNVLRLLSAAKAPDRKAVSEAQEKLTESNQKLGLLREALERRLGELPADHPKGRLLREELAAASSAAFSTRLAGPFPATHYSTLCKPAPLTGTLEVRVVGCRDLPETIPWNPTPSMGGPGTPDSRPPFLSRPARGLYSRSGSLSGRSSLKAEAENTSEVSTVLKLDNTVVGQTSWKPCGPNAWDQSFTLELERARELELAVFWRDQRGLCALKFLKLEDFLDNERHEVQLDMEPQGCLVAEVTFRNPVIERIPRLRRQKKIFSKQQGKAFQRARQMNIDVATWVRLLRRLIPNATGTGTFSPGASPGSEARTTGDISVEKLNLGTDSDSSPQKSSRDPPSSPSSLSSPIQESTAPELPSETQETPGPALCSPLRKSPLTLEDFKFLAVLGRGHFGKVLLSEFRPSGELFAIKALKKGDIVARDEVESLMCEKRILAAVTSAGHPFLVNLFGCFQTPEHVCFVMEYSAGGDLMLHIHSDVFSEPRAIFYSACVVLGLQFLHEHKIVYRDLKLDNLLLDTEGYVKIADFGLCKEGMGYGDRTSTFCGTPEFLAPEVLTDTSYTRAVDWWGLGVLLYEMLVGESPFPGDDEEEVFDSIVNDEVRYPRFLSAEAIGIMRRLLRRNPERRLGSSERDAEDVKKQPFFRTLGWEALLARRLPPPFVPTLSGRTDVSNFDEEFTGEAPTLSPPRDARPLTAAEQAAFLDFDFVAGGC
T7 sequence (O14920 whole entry): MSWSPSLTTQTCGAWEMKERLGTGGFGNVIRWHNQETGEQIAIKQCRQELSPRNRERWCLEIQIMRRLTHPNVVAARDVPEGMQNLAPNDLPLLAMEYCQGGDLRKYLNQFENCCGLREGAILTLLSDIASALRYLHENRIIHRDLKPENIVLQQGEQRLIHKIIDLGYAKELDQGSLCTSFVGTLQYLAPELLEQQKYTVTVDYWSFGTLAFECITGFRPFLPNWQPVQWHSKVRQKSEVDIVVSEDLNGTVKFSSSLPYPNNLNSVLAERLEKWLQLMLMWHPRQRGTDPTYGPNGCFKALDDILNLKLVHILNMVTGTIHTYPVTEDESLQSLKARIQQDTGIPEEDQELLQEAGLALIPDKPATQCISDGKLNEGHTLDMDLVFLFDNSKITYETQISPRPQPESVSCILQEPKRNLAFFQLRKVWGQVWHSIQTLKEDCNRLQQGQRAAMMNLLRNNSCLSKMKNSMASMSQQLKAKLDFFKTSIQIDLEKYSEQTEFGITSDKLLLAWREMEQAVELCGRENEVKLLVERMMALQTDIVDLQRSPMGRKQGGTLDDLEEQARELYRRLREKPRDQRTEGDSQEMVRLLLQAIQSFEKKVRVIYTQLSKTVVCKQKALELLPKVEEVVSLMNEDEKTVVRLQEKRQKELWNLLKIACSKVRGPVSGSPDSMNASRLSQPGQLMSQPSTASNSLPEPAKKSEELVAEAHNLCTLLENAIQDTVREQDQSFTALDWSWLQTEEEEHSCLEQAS
T10 sequence (P00519 whole entry F317I): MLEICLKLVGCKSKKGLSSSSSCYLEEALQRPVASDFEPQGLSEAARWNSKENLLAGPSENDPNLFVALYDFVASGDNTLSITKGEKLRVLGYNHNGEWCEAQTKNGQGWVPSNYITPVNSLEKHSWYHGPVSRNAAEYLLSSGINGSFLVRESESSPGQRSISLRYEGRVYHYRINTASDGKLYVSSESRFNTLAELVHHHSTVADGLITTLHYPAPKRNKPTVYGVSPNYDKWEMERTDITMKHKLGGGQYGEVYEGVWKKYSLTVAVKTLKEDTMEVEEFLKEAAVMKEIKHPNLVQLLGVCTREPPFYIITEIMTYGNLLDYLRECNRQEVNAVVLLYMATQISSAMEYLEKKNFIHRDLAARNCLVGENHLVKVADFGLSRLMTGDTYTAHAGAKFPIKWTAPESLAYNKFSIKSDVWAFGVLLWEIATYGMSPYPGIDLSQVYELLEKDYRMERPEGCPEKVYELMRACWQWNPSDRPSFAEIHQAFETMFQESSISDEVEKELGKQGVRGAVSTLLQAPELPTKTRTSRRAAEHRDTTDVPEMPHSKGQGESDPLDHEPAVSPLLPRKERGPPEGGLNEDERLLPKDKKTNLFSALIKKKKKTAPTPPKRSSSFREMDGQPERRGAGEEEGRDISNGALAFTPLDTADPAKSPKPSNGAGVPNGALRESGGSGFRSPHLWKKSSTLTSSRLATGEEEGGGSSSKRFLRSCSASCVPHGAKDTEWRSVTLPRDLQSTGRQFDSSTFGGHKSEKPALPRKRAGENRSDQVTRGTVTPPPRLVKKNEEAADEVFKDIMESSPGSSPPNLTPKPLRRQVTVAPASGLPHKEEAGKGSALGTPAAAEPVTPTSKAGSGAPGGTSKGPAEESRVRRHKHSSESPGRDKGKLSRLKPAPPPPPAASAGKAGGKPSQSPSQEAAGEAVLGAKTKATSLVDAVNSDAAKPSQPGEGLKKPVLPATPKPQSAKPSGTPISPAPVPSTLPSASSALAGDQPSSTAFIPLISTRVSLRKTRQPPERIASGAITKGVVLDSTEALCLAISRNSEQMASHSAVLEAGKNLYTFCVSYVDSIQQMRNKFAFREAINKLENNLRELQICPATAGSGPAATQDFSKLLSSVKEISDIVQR
T5 sequence (O15146 24-869): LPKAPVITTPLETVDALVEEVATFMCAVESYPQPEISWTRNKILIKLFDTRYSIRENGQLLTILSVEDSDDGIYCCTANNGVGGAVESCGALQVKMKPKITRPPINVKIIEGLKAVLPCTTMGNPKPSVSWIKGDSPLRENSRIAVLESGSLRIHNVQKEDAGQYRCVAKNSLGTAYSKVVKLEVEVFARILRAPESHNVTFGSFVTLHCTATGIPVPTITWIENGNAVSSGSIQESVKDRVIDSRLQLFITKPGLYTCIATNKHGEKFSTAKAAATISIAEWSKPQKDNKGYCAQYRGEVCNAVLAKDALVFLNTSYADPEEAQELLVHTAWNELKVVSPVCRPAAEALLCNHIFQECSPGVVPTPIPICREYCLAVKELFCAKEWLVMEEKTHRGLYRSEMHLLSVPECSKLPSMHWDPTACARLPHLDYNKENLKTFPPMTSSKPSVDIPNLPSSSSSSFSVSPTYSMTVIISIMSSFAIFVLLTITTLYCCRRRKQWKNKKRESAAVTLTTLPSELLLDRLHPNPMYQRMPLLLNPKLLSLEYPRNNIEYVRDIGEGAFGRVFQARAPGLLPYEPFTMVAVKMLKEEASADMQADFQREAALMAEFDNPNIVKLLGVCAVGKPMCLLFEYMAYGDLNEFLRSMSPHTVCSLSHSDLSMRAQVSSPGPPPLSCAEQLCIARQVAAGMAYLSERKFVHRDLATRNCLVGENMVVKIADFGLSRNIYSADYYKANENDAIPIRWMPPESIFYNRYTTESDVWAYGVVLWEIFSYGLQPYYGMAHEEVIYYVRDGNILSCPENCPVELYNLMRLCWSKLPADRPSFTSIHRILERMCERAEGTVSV
T16 sequence (P31749 whole entry): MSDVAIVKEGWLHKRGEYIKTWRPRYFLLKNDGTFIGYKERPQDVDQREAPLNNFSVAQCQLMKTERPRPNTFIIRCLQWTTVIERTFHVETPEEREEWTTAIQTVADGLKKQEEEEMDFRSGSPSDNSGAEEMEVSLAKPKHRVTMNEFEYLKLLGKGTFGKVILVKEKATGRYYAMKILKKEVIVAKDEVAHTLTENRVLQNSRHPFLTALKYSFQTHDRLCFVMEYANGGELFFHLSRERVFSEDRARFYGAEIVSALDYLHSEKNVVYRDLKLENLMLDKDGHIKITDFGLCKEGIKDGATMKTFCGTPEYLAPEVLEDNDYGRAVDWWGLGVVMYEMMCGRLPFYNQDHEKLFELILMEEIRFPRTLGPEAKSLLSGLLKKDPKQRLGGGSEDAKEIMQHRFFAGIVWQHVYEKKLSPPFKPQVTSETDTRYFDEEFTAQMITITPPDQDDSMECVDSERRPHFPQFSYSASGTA
T8 sequence (Q15418 418-675 limits assumed): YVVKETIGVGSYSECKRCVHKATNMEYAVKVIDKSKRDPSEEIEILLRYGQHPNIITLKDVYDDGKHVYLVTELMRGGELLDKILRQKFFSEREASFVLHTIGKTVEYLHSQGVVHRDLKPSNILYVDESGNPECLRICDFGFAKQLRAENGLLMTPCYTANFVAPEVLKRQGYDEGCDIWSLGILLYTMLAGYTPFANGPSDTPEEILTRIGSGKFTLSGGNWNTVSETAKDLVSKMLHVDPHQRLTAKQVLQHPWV

C#Cc1cccc(Nc2ncnc3cc(OC)c(OCCCN4CCOCC4)cc23)c1 [NRC-2694, N-(3-ethylnylphenyl)-7-methoxy-6-[3-(4-morpholinyl)propoxy]-4-quinazolinamine]
% Ctrl @ 10000 nM [1]: 50 % Ctrl | % Ctrl @ 10000 nM [2]: 82 % Ctrl | % Ctrl @ 10000 nM [3]: 61 % Ctrl | % Ctrl @ 10000 nM [4]: 39 % Ctrl | % Ctrl @ 10000 nM [5]: 100 % Ctrl | % Ctrl @ 10000 nM [6]: 69 % Ctrl | % Ctrl @ 10000 nM [7]: 51 % Ctrl | % Ctrl @ 10000 nM [8]: 49 % Ctrl | % Ctrl @ 10000 nM [9]: 63 % Ctrl | % Ctrl @ 10000 nM [10]: 48 % Ctrl | % Ctrl @ 10000 nM [11]: 93 % Ctrl | % Ctrl @ 10000 nM [12]: 47 % Ctrl | % Ctrl @ 10000 nM [13]: 77 % Ctrl | % Ctrl @ 10000 nM [14]: 92 % Ctrl | % Ctrl @ 10000 nM [15]: 56 % Ctrl | % Ctrl @ 10000 nM [16]: 100 % Ctrl | % Ctrl @ 10000 nM [17]: 94 % Ctrl | % Ctrl @ 10000 nM [18]: 83 % Ctrl
